Assay results reported in US7041636B1, “Composition for counteracting hair loss” (priority 2004, dated 2006).

Tested on: dandruff
Assay: dandruff removal trials, topical application before shampooing
Assay type: in vivo
Settings: series of trials on subjects; applied twenty minutes before shampooing
Excerpt: The author of the present inventions has engaged in research, and experimentation in the field of hair care products for a number of years. As a dandruff treatment, they investigated the use of polysorbate 80, procured from the Nourishair Company in the form of a thick gel. […] Based on this experience, they used the product on a number of subjects over a period of ten years. For antiseptic purposes and tactile response, they subsequently decided to add an amount of menthol to the polysorbate 80.

Substance	dandruff removal
polysorbate 60	worked well
polysorbate 80	worked well
